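Dose response: 5 concentrations. Exposure: 48 h. Format: 96-well plates. Endpoint: linear interpolation; highest concentration if not reached. GI50 marks 50% less growth. Definition used: TGI = concentration required for complete inhibition of growth.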 A value given as a limit tells only on which side of the number the result lay.

The record followed here is PubChem BioAssay (NCI).

Some test systems named below: HOP-92 NSCLC; COLO 205 colon; MOLT-4 leukemia; T-47D breast; DLD-1 colon; DMS 114 small cell lung; DMS 273 small cell lung; HOP-18 NSCLC; KM20L2 colon; M19-MEL melanoma; P388 leukemia; P388/ADR leukemia; SN12K1 renal; SNB-78 CNS; 786-0 renal; LXFL 529 NSCLC; XF 498 CNS.
What all share (experiment): NCI tumour cell line growth inhibition, 48 h

With `C=C(C)[C@@H]1CC[C@]2(C(=O)NC3CCCCC3)CC[C@]3(C)[C@H](CC[C@@H]4[C@@]5(C)CCCNC(C)(C)[C@@H]5CC[C@]43C)[C@@H]12`, in the test on HOP-92 NSCLC, the GI50 was 1.55 µM and the TGI is 3.15 µM.

On to `Cn1c(=O)c(-c2ccccc2)c(N=[N+]=[N-])c2ccccc21`, for which the TGI in the test on COLO 205 colon is more than 100 µM; in the test on HOP-92 NSCLC, more than 100 µM; in the test with MOLT-4 leukemia it was 85.4 µM; in the test on T-47D breast, more than 100 µM.

Turning to `CC1(C)N=C(N)N=C(N)N1c1ccc(CCc2ccccc2)cc1`, the TGI with COLO 205 colon is 24.1 µM; in the test on DLD-1 colon it was more than 100 µM; with DMS 114 small cell lung, 52.5 µM; in the test on DMS 273 small cell lung, 17.5 µM; in the test with HOP-18 NSCLC it was 97.3 µM; in the test on HOP-92 NSCLC, 79.7 µM. The TGI in the test with KM20L2 colon was more than 100 µM; in the test on M19-MEL melanoma it was 38.7 µM; in the test on MOLT-4 leukemia, more than 100 µM; in the test on P388 leukemia, 12.3 µM; in the test on P388/ADR leukemia, more than 100 µM; with SN12K1 renal it was more than 100 µM. The molecule also showed a TGI in the test with SNB-78 CNS of more than 100 µM.

As to `CCC(/C=C/C1OC(=O)C=CC1C)=C\C(C)C/C=C/C(C)=C/C(C)C(=O)C(C)C(O)C(C)C/C(C)=C/C(=O)O` (stereo not given), the GI50 in the test on COLO 205 colon is 7.52 pM; in the test on HOP-92 NSCLC, 5.32 µM; in the test with MOLT-4 leukemia, 2.33 pM. The TGI is 35.8 µM in the test on DLD-1 colon; 4.18 µM with DMS 114 small cell lung; 27.1 µM in the test on DMS 273 small cell lung; 16.3 µM in the test with HOP-18 NSCLC; 8.33 µM with KM20L2 colon; 6.49 µM with M19-MEL melanoma. The results for the TGI in the test on P388 leukemia, with SN12K1 renal and with SNB-78 CNS were 6.6 µM, 4.74 µM and 14.3 µM, respectively.

For the molecule `COc1ccc2cc(/C=N/NC(=O)Nc3ccccc3)ccc2c1`, the TGI in the test on COLO 205 colon, in the test with HOP-92 NSCLC, in the test with MOLT-4 leukemia and with T-47D breast was more than 100 µM throughout.

`C[C@H](CCC(=O)O)[C@H]1CC[C@H]2[C@@H]3CC[C@@H]4C[C@H](O)CC[C@]4(C)[C@H]3C[C@H](O)[C@]12C`: the TGI in the test with 786-0 renal was more than 100 µM; in the test with COLO 205 colon, 61.8 µM; with MOLT-4 leukemia, 62.3 µM; with T-47D breast, 91.2 µM.

Regarding `CC1(CCOCc2ccccc2)NC(=O)NC1=O` (stereo not given), the TGI with 786-0 renal, in the test with HOP-92 NSCLC and with MOLT-4 leukemia was more than 100 µM each time.

As to `Cc1[nH]nc(C(F)(F)F)c1N=NN1CCOCC1`, the TGI in the test on COLO 205 colon is 11.9 µM; in the test on HOP-92 NSCLC it was 8.32 µM; in the test on MOLT-4 leukemia it was 5.32 µM; in the test on T-47D breast, more than 42.8 µM.

Take `c1ccc(CCNc2ccccn2)nc1`: the TGI in the test with 786-0 renal, in the test on COLO 205 colon and in the test with HOP-92 NSCLC was more than 100 µM throughout.

Regarding `CC(OC(C)(C)C)[C@H](NC(=O)OCC(Cl)(Cl)Cl)C(=O)O` (stereo not given in full), the TGI in the test with COLO 205 colon, with DLD-1 colon, with DMS 114 small cell lung, with DMS 273 small cell lung, in the test on HOP-92 NSCLC and in the test on KM20L2 colon was more than 100 µM each time. For the same molecule, the TGI in the test with LXFL 529 NSCLC, in the test with M19-MEL melanoma, with MOLT-4 leukemia, in the test on SNB-78 CNS and in the test with XF 498 CNS was more than 100 µM in each case.
